Measured values published in patent US20020091086A1, “Peptides that block viral infectivity and methods of use thereof” (priority 1999, published 2002).
Where two headings read alike, the source gives them in different places. Peptide text beside a SMILES is read from it.

Key:
SIV = SIV infectivity assay in H9 cells, RT activity in supernatant; type: cell-based; settings: for SIV infection, result in words: summary of Experiments 1-3
HIV-2 = HIV-2 infectivity assay in H9 cells, RT activity in supernatant; type: cell-based; settings: for HIV-2 infection, result in words: summary of Experiments 1-3
HIV-1 = settings: for reduction of HIV-1 infectivity, p24 antigen in cell supernatants: Table 6; for p24 / p24 (OD) / reduction (%): Experiment 5, H9 cells
Procedure: In Experiment 5, (Table 6) approximately 200,000 H9 cells were infected with HIV-1 at 25 TCID50 to test the inhibitory effect of different concentrations of peptides GPG-NH2, GKG-NH2 and CQG-NH2 and combinations of these peptides. As above, H9 cells were resuspended with or without the different peptides at varying concentrations in 1 ml of RPMI 1640 medium supplemented with 10% (v/v) heat-inactivated fetal bovine serum (FBS), penicillin (100 u/ml), streptomycin (100 u/ml), and Polybrene (2 μg/ml). Thereafter, viruses were added at 25 TCID50 in a volume of 20-30 μl. Cells were incubated with the indicated virus at 37° C. for 1 hr then pelleted at 170×g for 7 minutes. The cells were then washed three times in RPMI medium without peptides at room temperature and pelleted at 170×g for 7 minutes, as above. After the final wash, the cells were resuspended in RPMI culture medium containing the peptides in a 24-well plate (Costar corporation) and kept at 37° C. in 5% CO2 with humidity.
Culture supernatants were collected when the medium was changed at 4, 7, and 14 days post infection. The replication of each virus was monitored by detecting the presence of p24 in the supernatants. HIV p24 antigen was determined using a commercially available HIV p24 antigen detection kit (Abbott). The results are presented as absorbance values (OD) and higher absorbance indicates a higher protein concentration and greater viral infection. In some cases, serial dilutions of the supernatants were made so as to more accurately detect p24 concentration.
The percent reduction tabulated in Table 6 was calculated by dividing amount of p24 antigen detected in the peptide-treated sample by the amount of p24 antigen detected in the control sample, multiplying this dividend by 100 to obtain a percentage, and subtracting the dividend percentage by 100%.

[1] = Experiment 3, 5 μM (of each tripeptide)
[2] = Experiment 3, 20 μM (of each tripeptide)

NCCCC[C@H](NC(=O)CN)C(=O)NCC(N)=O [GKG-NH2, glycyl-lysyl-glycine amide] (H-Gly-Lys-Gly-NH2)
Day 7 RT SIV (SIV; Experiment 1, 100 μM): 0.421 OD
Day 10 RT SIV (SIV; Experiment 1, 100 μM): 0.099 OD
Day 7 RT SIV (SIV; Experiment 2, 100 μM): 0.116 OD
Day 10 RT SIV (SIV; Experiment 2, 100 μM): 0.204 OD
Day 7 RT SIV (SIV; [1]): 0.271 OD
Day 10 RT SIV (SIV; [1]): 1.709 OD
Day 7 RT SIV (SIV; [2]): 1.531 OD
Day 10 RT SIV (SIV; [2]): 2.482 OD
Day 7 RT SIV (SIV; Experiment 3, 100 μM): 1.005 OD
Day 10 RT SIV (SIV; Experiment 3, 100 μM): 1.382 OD
SIV infection, result in words (SIV): inhibit or prevent HIV-2 and SIV infection
Day 7 RT HIV-2 (HIV-2; Experiment 1, 100 μM): 0.160 OD
Day 10 RT HIV-2 (HIV-2; Experiment 1, 100 μM): 0.147 OD
Day 7 RT HIV-2 (HIV-2; Experiment 2, 100 μM): 0.283 OD
Day 10 RT HIV-2 (HIV-2; Experiment 2, 100 μM): 1.637 OD
Day 7 RT HIV-2 (HIV-2; [1]): 1.769 OD
Day 10 RT HIV-2 (HIV-2; [1]): 2.510 OD
Day 7 RT HIV-2 (HIV-2; [2]): 1.759 OD
Day 10 RT HIV-2 (HIV-2; [2]): 2.646 OD
Day 7 RT HIV-2 (HIV-2; Experiment 3, 100 μM): 0.828 OD
Day 10 RT HIV-2 (HIV-2; Experiment 3, 100 μM): 1.947 OD
HIV-2 infection, result in words (HIV-2): inhibit or prevent HIV-2 and SIV infection
reduction of HIV-1 infectivity, p24 antigen in cell supernatants (HIV-1; 300 μM): ~100%
p24 (HIV-1; Day 7 HIV-1, 100 μM): 1830 pg/mL
p24 (OD) (HIV-1; Day 7 HIV-1, 100 μM): 0.566 × 10^1 OD
reduction (%) (HIV-1; Day 7 HIV-1, 100 μM): 95%
p24 (HIV-1; Day 7 HIV-1, 300 μM): 388 pg/mL
p24 (OD) (HIV-1; Day 7 HIV-1, 300 μM): 1.08 OD
reduction (%) (HIV-1; Day 7 HIV-1, 300 μM): 99%
p24 (HIV-1; Day 7 HIV-1, 1000 μM): 273 pg/mL
p24 (OD) (HIV-1; Day 7 HIV-1, 1000 μM): 0.79 OD
reduction (%) (HIV-1; Day 7 HIV-1, 1000 μM): 100%
p24 (HIV-1; Day 14 HIV-1, 100 μM): 551000 pg/mL
p24 (OD) (HIV-1; Day 14 HIV-1, 100 μM): 1.48 × 10^3 OD
reduction (%) (HIV-1; Day 14 HIV-1, 100 μM): 61%
p24 (HIV-1; Day 14 HIV-1, 300 μM): 870 pg/mL
p24 (OD) (HIV-1; Day 14 HIV-1, 300 μM): 0.33 × 10^1 OD
reduction (%) (HIV-1; Day 14 HIV-1, 300 μM): 100%
p24 (HIV-1; Day 14 HIV-1, 1000 μM): 240 pg/mL
p24 (OD) (HIV-1; Day 14 HIV-1, 1000 μM): 0.11 × 10^1 OD
reduction (%) (HIV-1; Day 14 HIV-1, 1000 μM): 100%

NCC(=O)N1CCC[C@H]1C(=O)NCC(N)=O [GPG-NH2, glycyl-prolyl-glycine amide] (H-Gly-Pro-Gly-NH2)
Day 7 RT SIV (SIV; Experiment 1, 100 μM): 0.138 OD
Day 10 RT SIV (SIV; Experiment 1, 100 μM): 0.103 OD
Day 7 RT SIV (SIV; Experiment 2, 100 μM): 0.067 OD
Day 10 RT SIV (SIV; Experiment 2, 100 μM): 0.139 OD
Day 7 RT SIV (SIV; [1]): 0.753 OD
Day 10 RT SIV (SIV; [1]): 2.201 OD
Day 7 RT SIV (SIV; [2]): 0.197 OD
Day 10 RT SIV (SIV; [2]): 0.779 OD
SIV infection, result in words (SIV): inhibit or prevent HIV-2 and SIV infection
Day 7 RT HIV-2 (HIV-2; Experiment 1, 100 μM): 0.735 OD
Day 10 RT HIV-2 (HIV-2; Experiment 1, 100 μM): 0.145 OD
Day 7 RT HIV-2 (HIV-2; Experiment 2, 100 μM): 0.093 OD
Day 10 RT HIV-2 (HIV-2; Experiment 2, 100 μM): 0.575 OD
Day 7 RT HIV-2 (HIV-2; [1]): 1.735 OD
Day 10 RT HIV-2 (HIV-2; [1]): 2.329 OD
Day 7 RT HIV-2 (HIV-2; [2]): 0.252 OD
Day 10 RT HIV-2 (HIV-2; [2]): 1.305 OD
HIV-2 infection, result in words (HIV-2): inhibit or prevent HIV-2 and SIV infection
p24 (HIV-1; Day 7 HIV-1, 20 μM): 421 pg/mL
p24 (OD) (HIV-1; Day 7 HIV-1, 20 μM): 1.159 OD
reduction (%) (HIV-1; Day 7 HIV-1, 20 μM): 99%
p24 (HIV-1; Day 7 HIV-1, 100 μM): 160 pg/mL
p24 (OD) (HIV-1; Day 7 HIV-1, 100 μM): 0.508 OD
reduction (%) (HIV-1; Day 7 HIV-1, 100 μM): 100%
p24 (HIV-1; Day 7 HIV-1, 300 μM): 180 pg/mL
p24 (OD) (HIV-1; Day 7 HIV-1, 300 μM): 0.557 OD
reduction (%) (HIV-1; Day 7 HIV-1, 300 μM): 100%
p24 (HIV-1; Day 14 HIV-1, 20 μM): 40600 pg/mL
p24 (OD) (HIV-1; Day 14 HIV-1, 20 μM): 1.12 × 10^2 OD
reduction (%) (HIV-1; Day 14 HIV-1, 20 μM): 97%
p24 (HIV-1; Day 14 HIV-1, 100 μM): 663 pg/mL
p24 (OD) (HIV-1; Day 14 HIV-1, 100 μM): 1.76 OD
reduction (%) (HIV-1; Day 14 HIV-1, 100 μM): 100%
p24 (HIV-1; Day 14 HIV-1, 300 μM): 498 pg/mL
p24 (OD) (HIV-1; Day 14 HIV-1, 300 μM): 1.35 OD
reduction (%) (HIV-1; Day 14 HIV-1, 300 μM): 100%

cystyl-glutaminyl-glycine amide [CQG-NH2]
Day 7 RT SIV (SIV; Experiment 1, 100 μM): 0.747 OD
Day 10 RT SIV (SIV; Experiment 1, 100 μM): 0.110 OD
Day 7 RT SIV (SIV; Experiment 2, 100 μM): 0.120 OD
Day 10 RT SIV (SIV; Experiment 2, 100 μM): 1.761 OD
Day 7 RT SIV (SIV; [1]): 1.159 OD
Day 10 RT SIV (SIV; [1]): 2.821 OD
Day 7 RT SIV (SIV; [2]): 0.615 OD
Day 10 RT SIV (SIV; [2]): 2.158 OD
Day 7 RT SIV (SIV; Experiment 3, 100 μM): 0.795 OD
Day 10 RT SIV (SIV; Experiment 3, 100 μM): 2.286 OD
SIV infection, result in words (SIV): inhibit or prevent HIV-2 and SIV infection
Day 7 RT HIV-2 (HIV-2; Experiment 1, 100 μM): 0.217 OD
Day 10 RT HIV-2 (HIV-2; Experiment 1, 100 μM): 0.296 OD
Day 7 RT HIV-2 (HIV-2; Experiment 2, 100 μM): 1.241 OD
Day 10 RT HIV-2 (HIV-2; Experiment 2, 100 μM): 2.501 OD
Day 7 RT HIV-2 (HIV-2; [1]): 1.760 OD
Day 10 RT HIV-2 (HIV-2; [1]): 2.466 OD
Day 7 RT HIV-2 (HIV-2; [2]): 1.748 OD
Day 10 RT HIV-2 (HIV-2; [2]): 2.721 OD
Day 7 RT HIV-2 (HIV-2; Experiment 3, 100 μM): 1.715 OD
Day 10 RT HIV-2 (HIV-2; Experiment 3, 100 μM): 2.815 OD
HIV-2 infection, result in words (HIV-2): inhibit or prevent HIV-2 and SIV infection
reduction of HIV-1 infectivity, p24 antigen in cell supernatants (HIV-1; 300 μM): ~100%
p24 (HIV-1; Day 7 HIV-1, 100 μM): 5620 pg/mL
p24 (OD) (HIV-1; Day 7 HIV-1, 100 μM): 1.51 × 10^1 OD
reduction (%) (HIV-1; Day 7 HIV-1, 100 μM): 86%
p24 (HIV-1; Day 7 HIV-1, 300 μM): 1920 pg/mL
p24 (OD) (HIV-1; Day 7 HIV-1, 300 μM): 0.59 × 10^1 OD
reduction (%) (HIV-1; Day 7 HIV-1, 300 μM): 95%
p24 (HIV-1; Day 7 HIV-1, 1000 μM): 320 pg/mL
p24 (OD) (HIV-1; Day 7 HIV-1, 1000 μM): 0.91 OD
reduction (%) (HIV-1; Day 7 HIV-1, 1000 μM): 99%
p24 (HIV-1; Day 14 HIV-1, 100 μM): 1.47e+06 pg/mL
p24 (OD) (HIV-1; Day 14 HIV-1, 100 μM): 0.48 × 10^4 OD
reduction (%) (HIV-1; Day 14 HIV-1, 100 μM): 0%
p24 (HIV-1; Day 14 HIV-1, 300 μM): 2400 pg/mL
p24 (OD) (HIV-1; Day 14 HIV-1, 300 μM): 0.11 × 10^2 OD
reduction (%) (HIV-1; Day 14 HIV-1, 300 μM): 100%
p24 (HIV-1; Day 14 HIV-1, 1000 μM): 280 pg/mL
p24 (OD) (HIV-1; Day 14 HIV-1, 1000 μM): 0.13 × 10^1 OD
reduction (%) (HIV-1; Day 14 HIV-1, 1000 μM): 100%
